Columns and labels:
[1] = test system: Huh7 hepatocellular carcinoma cells; assay: FGFR4 cell proliferation experiment, Cell Titer Glo (CTG); assay type: cell-based; conditions: Homo sapiens, Huh-7, 72 h, HuH-7 cells, 3 days; for IC50: concentration leading to absolute half growth inhibition; for EC50: concentration leading to half maximal growth inhibition
Method: II. FGFR4 Cell Proliferation Experiment
Cell Titer Glo (CTG) experiment was used in the present invention to evaluate the functional effects of the compounds on cell proliferation. […] Compound-mediated inhibition of cell proliferation/survival was assessed by quantification of cellular ATP levels using CTG reagent (Promega, #G7573). The specific experimental procedure was as follows:
2. 10 μL of medium containing a compound concentration of 10 fold of its final test concentration was added;
3. The dose effect was evaluated by a 5-fold serial dilution of the test compound, starting from 10 μM.
4. After cells incubation for 3 days at 37° C. under 5% CO2, the effect of the inhibitor on cell proliferation was quantified after adding 50 μL of CTG and testing with luminescence.

[2] = molecular target: FGFR4 (Homo sapiens, UniProt P22455); assay: FGFR4 Caliper Assay (in vitro biochemical kinase analysis of FGFR4); conditions: read-out: Enzymatic activity FGFR4 IC50
Sequence of FGFR4 (P22455 22-802): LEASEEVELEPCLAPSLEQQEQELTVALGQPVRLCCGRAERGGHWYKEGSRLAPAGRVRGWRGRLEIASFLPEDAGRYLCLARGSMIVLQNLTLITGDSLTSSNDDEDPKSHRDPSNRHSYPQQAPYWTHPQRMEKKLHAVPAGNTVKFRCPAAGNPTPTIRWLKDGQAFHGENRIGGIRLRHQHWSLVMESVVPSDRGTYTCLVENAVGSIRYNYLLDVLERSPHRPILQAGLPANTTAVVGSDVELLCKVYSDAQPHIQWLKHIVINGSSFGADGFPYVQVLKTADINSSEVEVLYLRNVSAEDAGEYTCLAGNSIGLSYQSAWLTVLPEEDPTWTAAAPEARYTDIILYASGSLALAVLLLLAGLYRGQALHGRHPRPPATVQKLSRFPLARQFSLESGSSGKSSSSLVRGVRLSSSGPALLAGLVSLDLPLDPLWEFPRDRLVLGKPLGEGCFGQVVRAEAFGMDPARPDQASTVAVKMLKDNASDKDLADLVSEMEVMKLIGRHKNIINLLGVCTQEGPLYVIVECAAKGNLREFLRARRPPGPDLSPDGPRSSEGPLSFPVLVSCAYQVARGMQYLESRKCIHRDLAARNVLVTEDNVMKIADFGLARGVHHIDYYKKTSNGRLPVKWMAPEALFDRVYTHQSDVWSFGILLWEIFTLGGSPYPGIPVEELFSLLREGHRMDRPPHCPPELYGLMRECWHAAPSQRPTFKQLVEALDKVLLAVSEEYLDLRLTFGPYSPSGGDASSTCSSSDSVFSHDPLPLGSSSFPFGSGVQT
Method: I. In Vitro Biochemical Kinase Analysis of FGFR4
FGFR4 Caliper Assay was used in the present invention to determine the inhibitory activities of the compounds against FGFR4. The detailed experimental procedure was as follows.
2. A reaction system is a mixture solution of 50 mM HEPES, pH 7.5, 1 mM DTT, 0.02% Tween 20, 0.02% BSA, 0.6% DMSO, 10 mM beta glycerol phosphate and 10 μM sodium orthovanadate and 16 mM MgCl2.
3. The reaction system was incubated at 30° C. for 40 minutes.
4. The reaction was terminated by adding a stop solution (100 mM HEPES, pH 7.5, 5% DMSO, 0.1% Caliper coating reagent, 10 mM EDTA and 0.015% Brij35).
5. The culture plate with the terminated kinase reaction was transferred to the Caliper LC 3000 workstation to read the data, the phosphorylated and unphosphorylated peptides were separated by using the Caliper microfluid migration shift technique, and the analyte was transferred by allowing a constant buffer flow through the chip, the migration of the substrate peptide was monitored by the labeled fluorescent signal, and the kinase activity was calculated by using the amount of the phosphate-based peptide formed.
6. Finally, IC50 values were determined by non-linear regression analysis of percent inhibition at different compound concentrations.

IC50 [1] [nM]	EC50 [1] [nM]	IC50 [2] [nM]	Structure (SMILES)
333	179	80.5	C=CC(=O)N[C@H]1COC[C@H]1Nc1ncc2cc(-c3c(Cl)c(OC)cc(OC)c3Cl)ncc2n1 (racemic) [Example 118, (±)—N-((3R,4S)-4-((6-(2,6-dichloro-3,5-dimethoxyphenyl)pyrido[3,4-d]pyrimidin-2-yl)amino)tetrahydrofuran-3-yl)acrylamide]
126	27	18	C=CC(=O)N[C@H]1CCOC[C@H]1Nc1ncc2cc(-c3c(Cl)c(OC)cc(OC)c3Cl)ccc2n1 [BLU-554]
1360	549		C=CC(=O)Nc1cccc(C)c1Nc1ncc2cc(-c3c(Cl)c(OC)cc(OC)c3Cl)ccc2n1 [BLU-9931]
2450	1530	13.9	C=CC(=O)Nc1cccc(C)c1Nc1cc2c(=O)n(C)c(-c3c(Cl)c(OC)cc(OC)c3Cl)cc2cn1 [Example 1, N-(2-((7-(2,6-dichloro-3,5-dimethoxyphenyl)-6-methyl-5-oxo-5,6-dihydro-2,6-naphthyridin-3-yl)amino)-3-methylphenyl)acrylamide]
> 10000	> 10000	26.1	C=CC(=O)Nc1cccc(C)c1Nc1cc2c(=O)[nH]c(-c3c(Cl)c(OC)cc(OC)c3Cl)nc2cn1 [Example 5, N-(2-((2-(2,6-dichloro-3,5-dimethoxyphenyl)-4-oxo-3,4-dihydropyrido[3,4-d]pyrimidin-6-yl)amino)-3-methyl-phenyl)acrylamide]
> 10000	> 10000	28.9	C=CC(=O)Nc1cccc(C)c1Nc1cc2c(=O)oc(-c3c(Cl)c(OC)cc(OC)c3Cl)cc2cn1 [Example 7, N-(2-((3-(2,6-dichloro-3,5-dimethoxyphenyl)-1-oxo-1 H-pyrano[4,3-c]pyridin-7-yl)amino)-3-methylphenyl) acrylamide]
1050	89	138	C=CC(=O)Nc1cccc(C)c1Nc1cc2c(OC)nc(-c3c(Cl)c(OC)cc(OC)c3Cl)cc2cn1 [Example 9, N-(2-((7-(2,6-dichloro-3,5-dimethoxyphenyl)-5-dimethoxy-2,6-naphthyridin-3-yl)amino)-3-methylphenyl)acryl-amide]
4820	3520	105	C=CC(=O)Nc1cccc(C)c1Nc1cc2c(OC)nc(-c3c(Cl)c(OC)cc(OC)c3Cl)nc2cn1 [Example 10, N-(2-((2-(2,6-dichloro-3,5-dimethoxyphenyl)-4-methoxy-pyrido[3,4-d]pyrimidin-6-yl)amino)-3-methylphenyl) acrylamide]
4720	4720	101	C=CC(=O)Nc1cccc(C)c1Nc1cc2c(=O)n(CCOC)c(-c3c(Cl)c(OC)cc(OC)c3Cl)nc2cn1 [Example 11, N-(2-((2-(2,6-dichloro-3,5-dimethoxyphenyl)-3-(2-methoxyethyl)-4-oxo-3,4-dihydropyrido[3,4-d]pyrimidin-6-yl)amino)-3-methylphenyl) acrylamide]
268	54.2	53.3	C=CC(=O)Nc1cn(C)nc1Nc1ncc2cc(-c3c(Cl)c(OC)cc(OC)c3Cl)ncc2n1 [Example 64, N-(3-((6-(2,6-dichloro-3,5-dimethoxyphenyl)pyrido[3,4-d]pyrimidin-2-yl)amino)-1-methyl-1H-pyrazol-4-yl) acrylamide]
> 10000	> 10000	247	C=CC(=O)Nc1cc(N2CCN(C)CC2)cc(C)c1Nc1cc2c(=O)n(C)c(-c3c(Cl)c(OC)cc(OC)c3Cl)nc2cn1 [Example 75, N-(2-((2-(2,6-dichloro-3,5-dimethoxyphenyl)-3-methyl-4-oxo-3,4-dihydropyrido [3,4-d]pyrimidin-6-yl)amino)-3-methyl-5-(4-methyl-piperazin-1-yl)phenyl) acrylamide]
62.6	23.8	24	C=CC(=O)Nc1cn(C)nc1Nc1ncc2cc(-c3c(Cl)c(OC)cc(OC)c3Cl)nc(NCC3CC3)c2n1 [Example 76, N-(3-((8-((cyclopropylmethyl)amino)-6-(2,6-dichloro-3,5-dimethoxyphenyl)pyrido[3,4-d]pyrimidin-2-yl)amino)-1-methyl-1H-pyrazol-4-yl)acrylamide]
		7.7	[2H]C([2H])([2H])Oc1cc(OC([2H])([2H])[2H])c(Cl)c(-c2cc3cnc(N[C@@H]4COC[C@@H]4NC(=O)C=C)nc3c(NCC3CC3)n2)c1Cl [Example 425, N-((3R,4S)-4-((8-((cyclopropylmeth-yl)amino)-6-(2,6-dichloro-3,5-bis(meth-oxy-d3)phenyl)pyrido[3,4-d]pyrimi-din-2-yl)amino)tetrahydrofuran-3-yl)acrylamide]
		519	C=CC(=O)N[C@H]1COC[C@H]1Nc1ncc2cc(-c3c(Cl)c(OC)cc(OC)c3Cl)nc(NCCN(C)C)c2n1 [Example 431, N-((3R,4S)-4-((6-(2,6-dichloro-3,5-di-methoxyphenyl)-8-((2-(dimethylami-no)ethyl)amino)pyrido[3,4-d]pyrimi-din-2-yl)amino)tetrahydrofuran-3-yl) acrylamide]
		> 10000	C=CC(=O)N[C@H]1COC[C@H]1Nc1ncc2cc(-c3c(Cl)c(OC)cc(OC)c3Cl)nc(N(C)C)c2n1 [Example 436, N-((3R,4S)-4-((6-(2,6-dichloro-3,5-di-methoxyphenyl)-8-(dimethylamino)pyrido[3,4-d]pyrimidin-2-yl)amino)tetrahydrofuran-3-yl)acrylamide]
		4.6	C=CC(=O)N[C@H]1COC[C@H]1Nc1ncc2cc(-c3c(Cl)c(OC)cc(OC)c3Cl)nc(NCC3CCOC3)c2n1 (stereo partly drawn) [Example 439, N-((3R,4S)-4-((6-(2,6-dichloro-3,5-di-methoxyphenyl)-8-(((tetrahydrofuran-3-yl)methyl)amino)pyrido[3,4-d]py-rimidin-2-yl)amino)tetrahydrofuran-3-yl)acrylamide]
		7	C=CC(=O)N[C@H]1COC[C@H]1Nc1ncc2cc(-c3c(Cl)c(OC)cc(OC)c3Cl)nc(NC3CCOCC3)c2n1 [Example 444, N-((3R,4S)-4-((6-(2,6-dichloro-3,5-di-methoxyphenyl)-8-((tetrahydro-2H-pyran-4-yl)amino)pyrido[3,4-d]py-rimidin-2-yl)amino)tetrahydrofuran-3-yl)acrylamide]
		46.4	C=CC(=O)N[C@H]1COC[C@H]1Nc1ncc2cc(-c3c(Cl)c(OC)cc(OC)c3Cl)nc(NCCCCN(C)C)c2n1 [Example 465, N-((3R,4S)-4-((6-(2,6-dichloro-3,5-di-methoxyphenyl)-8-((4-(dimethylamino)butyl)amino)pyrido[3,4-d]pyrimi-din-2-yl)amino)tetrahydrofuran-3-yl) acrylamide]
56.1	36.6		C=CC(=O)N[C@H]1COC[C@H]1Nc1ncc2cc(-c3c(Cl)c(OC)cc(OC)c3Cl)nc(C3CC3)c2n1 [Example 609, N-((3R,4S)-4-((8-cyclopropyl-6-(2,6-dichloro-3,5-dimethoxyphenyl)pyri-do[3,4-d]pyrimidin-2-yl)amino)tetra-hydrofuran-3-yl)acrylamide]
		43	C=CC(=O)N[C@H]1COC[C@H]1Nc1ncc2cc(-c3c(Cl)c(OC)cc(OC)c3Cl)nc(OCc3cc(OC)cc(OC)c3)c2n1 [Example 755, N-((3R,4S)-4-((6-(2,6-dichloro-3,5-dimethoxyphenyl)-8-((3,5-dimethoxy-benzyl)oxy)pyrido[3,4-d]pyrimidin-2-yl)amino)tetrahydrofuran-3-yl) acrylamide]
660	651		C=CC(=O)N[C@H]1COC[C@H]1Nc1ncc2cc(-c3c(F)ccc(OC)c3F)nc(NC)c2n1 [Example 777, N-((3R,4S)-4-((6-(2,6-difluoro-3-meth-oxyphenyl)-8-(methylamino)pyri-do[3,4-d]pyrimidin-2-yl)amino)tetra-hydrofuran-3-yl)acrylamide]
11.2	9.5		C=CC(=O)N[C@H]1COC[C@H]1Nc1ncc2cc(-c3c(Cl)c(OC)cc(OC)c3Cl)nc(N3CC[C@](C)(O)C3)c2n1 [Example 778, N-((3R,4S)-4-((6-(2,6-dichloro-3,5-dimethoxyphenyl)-8-((S)-3-hydroxy-3-methylpyrrolidin-1-yl)pyrido[3,4-d]py-rimidin-2-yl)amino)tetrahydrofuran-3-yl)acrylamide]
8.6	7.5		C=CC(=O)N[C@H]1COC[C@H]1Nc1ncc2cc(-c3c(Cl)c(OC)cc(OC)c3Cl)nc(N3CC[C@@](C)(O)C3)c2n1 [Example 779, N-((3R,4S)-4-((6-(2,6-dichloro-3,5-dimethoxyphenyl)-8-((R)-3-hydroxy-3-methylpyrrolidin-1-yl)pyrido[3,4-d]pyrimidin-2-yl)amino)tetrahydro-furan-3-yl)acrylamide]

From US11555036B2, “FGFR4 inhibitor, preparation method therefor and pharmaceutical use thereof” (Abbisko Therapeutics Co., Ltd., priority 2016, dated 2023)
